Experiment: TIMS collisional cross section (CCS, N2) of the lipid ion; higher = larger ion cross section
Details: sample type: HeLa; ionization mode: positive; one isomer drawn

Compound	TIMS collisional cross section
CC/C=C\C/C=C\C/C=C\C/C=C\C/C=C\CCCC(=O)O[C@H](COC(=O)CCC/C=C\C/C=C\C/C=C\C/C=C\CCCCC)COP(=O)([O-])OCC[N+](C)(C)C [PC 20:4_20:5] (ion (formula + adduct): [C48H78NO8P+H] 1+)	290.3 Å²
CC/C=C\C/C=C\C/C=C\C/C=C\C/C=C\C/C=C\CCC(=O)OC[C@H](COP(=O)([O-])OCC[N+](C)(C)C)OC(=O)CC/C=C\C/C=C\C/C=C\C/C=C\C/C=C\C/C=C\CC [PC 22:6_22:6] (ion (formula + adduct): [C52H80NO8P+H] 1+)	298.6 Å²
CCCCCCC/C=C\CCCCCCCC(=O)O[C@H](COCCCCCCCCCCCCCCCC)COP(=O)([O-])OCC[N+](C)(C)C [PC O- 16:0@_17:1] (ion (formula + adduct): [C41H82NO7P+H] 1+)	287.7 Å²
CCCCCCCC/C=C\CCCCCCCC(=O)O[C@H](COCCCCCCCCCCCCCCCC)COP(=O)([O-])OCC[N+](C)(C)C [PC O- 16:0@_18:1] (ion (formula + adduct): [C42H84NO7P+H] 1+)	290.7 Å²
CCCCC/C=C\C/C=C\C/C=C\C/C=C\CCCCCC(=O)O[C@H](COCCCCCCCCCCCCCCCCCC)COP(=O)([O-])OCC[N+](C)(C)C [PC O- 18:0@_22:4] (ion (formula + adduct): [C48H90NO7P+H] 1+)	301.9 Å²
CCCCC/C=C\C/C=C\C/C=C\C/C=C\C/C=C\CCC(=O)O[C@H](COCCCCCCCCCCCCCCCCCC)COP(=O)([O-])OCC[N+](C)(C)C [PC O- 18:0@_22:5] (ion (formula + adduct): [C48H88NO7P+H] 1+)	300.2 Å²
CCCCCCCCCCCCCC/C=C\OC[C@H](COP(=O)([O-])OCC[N+](C)(C)C)OC(=O)CCCCCCCCCCCCCCC [PC P- 16:0_16:0] (ion (formula + adduct): [C40H80NO7P+H] 1+)	284.4 Å²

Now from value to molecule:

TIMS collisional cross section	Compound
292.7 Å²	CCCCC/C=C/C/C=C/C/C=C/C/C=C/CCCC(=O)OC[C@H](COP(=O)([O-])OCC[N+](C)(C)C)OC(=O)CCC/C=C/C/C=C/C/C=C/C/C=C/CCCCC [PC 20:4_20:4] (ion (formula + adduct): [C48H80NO8P+H] 1+)
295.5 Å²	CC/C=C\C/C=C\C/C=C\C/C=C\C/C=C\C/C=C\CCC(=O)O[C@H](COC(=O)CCC/C=C\C/C=C\C/C=C\C/C=C\CCCCC)COP(=O)([O-])OCC[N+](C)(C)C [PC 20:4_22:6] (ion (formula + adduct): [C50H80NO8P+H] 1+)
280.8 Å²	CCCCCCCCCCCCCCCCOC[C@H](COP(=O)([O-])OCC[N+](C)(C)C)OC(=O)CCCCCCCCCCCCC [PC O- 16:0@_14:0] (ion (formula + adduct): [C38H78NO7P+H] 1+)
290.4 Å²	CCCCC/C=C/C/C=C/C/C=C/C/C=C/CCCC(=O)O[C@H](COCCCCCCCCCCCCCCCC)COP(=O)([O-])OCC[N+](C)(C)C [PC O- 16:0@_20:4] (ion (formula + adduct): [C44H82NO7P+H] 1+)
287.7 Å²	CC/C=C\C/C=C\C/C=C\C/C=C\C/C=C\CCCC(=O)O[C@H](COCCCCCCCCCCCCCCCC)COP(=O)([O-])OCC[N+](C)(C)C [PC O- 16:0@_20:5] (ion (formula + adduct): [C44H80NO7P+H] 1+)
294.4 Å²	CC/C=C\C/C=C\C/C=C\C/C=C\C/C=C\CCCCCC(=O)O[C@H](COCCCCCCCCCCCCCCCC)COP(=O)([O-])OCC[N+](C)(C)C [PC O- 16:0@_22:5] (ion (formula + adduct): [C46H84NO7P+H] 1+)
293.3 Å²	CCCCCCCCCCCCCCCCCCOC[C@H](COP(=O)([O-])OCC[N+](C)(C)C)OC(=O)CCCCCCCCCCCCCCC [PC O- 18:0@_16:0] (ion (formula + adduct): [C42H86NO7P+H] 1+)
305.7 Å²	CC/C=C\C/C=C\C/C=C\C/C=C\C/C=C\C/C=C\CCC(=O)O[C@H](COCCCCCCCCCCCCCCCCCCCC)COP(=O)([O-])OCC[N+](C)(C)C [PC O- 20:0@_22:6] (ion (formula + adduct): [C50H90NO7P+H] 1+)
281.9 Å²	CCCCCC/C=C\CCCCCCCC(=O)O[C@H](CO/C=C\CCCCCCCCCCCCCC)COP(=O)([O-])OCC[N+](C)(C)C [PC P- 16:0@_16:1] (ion (formula + adduct): [C40H78NO7P+H] 1+)
291.3 Å²	CC/C=C\C/C=C\C/C=C\C/C=C\C/C=C\C/C=C\CCC(=O)O[C@H](CO/C=C\CCCCCCCCCCCCCC)COP(=O)([O-])OCC[N+](C)(C)C [PC P- 16:0@_22:6] (ion (formula + adduct): [C46H80NO7P+H] 1+)

Same assay, conditions: sample type: Liver; ionization mode: positive; one isomer drawn

Compound	TIMS collisional cross section
CCCCC/C=C\C/C=C\C/C=C\CCCCCCC(=O)O[C@H](COC(=O)CCCC/C=C\C/C=C\C/C=C\CCCCC)COP(=O)([O-])OCC[N+](C)(C)C [PC 18:3_20:3@] (ion (formula + adduct): [C46H80NO8P+H] 1+)	293.2 Å²
CCCCC/C=C\C/C=C\C/C=C\CCCCCCC(=O)O[C@H](COC(=O)CCCCCCCCCCCCCCCCCC)COP(=O)([O-])OCC[N+](C)(C)C [PC 19:0@_20:3] (ion (formula + adduct): [C47H88NO8P+H] 1+)	299.8 Å²
CCCCC/C=C\C/C=C\C/C=C\C/C=C\CCCC(=O)O[C@H](COC(=O)CCCCCCCCCCCCCCCCCC)COP(=O)([O-])OCC[N+](C)(C)C [PC 19:0@_20:4] (ion (formula + adduct): [C47H86NO8P+H] 1+)	298 Å²
CC/C=C\C/C=C\C/C=C\C/C=C\C/C=C\C/C=C\CCC(=O)O[C@H](COC(=O)CCCCCCCCCCCCCCCCCC)COP(=O)([O-])OCC[N+](C)(C)C [PC 19:0@_22:6] (ion (formula + adduct): [C49H86NO8P+H] 1+)	300.5 Å²
CC/C=C\C/C=C\C/C=C\C/C=C\CCCCCCC(=O)O[C@H](COCCCCCCCCCC/C=C\CCCCCCCC)COP(=O)([O-])OCC[N+](C)(C)C [PC O- 20:1@_20:4] (ion (formula + adduct): [C48H88NO7P+H] 1+)	299.9 Å²

The next lines start with the values.

TIMS collisional cross section	Compound
286.7 Å²	CCCCC/C=C\C/C=C\C/C=C\C/C=C\CCCC(=O)O[C@H](COC(=O)CCCC/C=C\C/C=C\C/C=C\CCCCC)COP(=O)([O-])OCC[N+](C)(C)C [PC 18:3_20:4] (ion (formula + adduct): [C46H78NO8P+H] 1+)
289.6 Å²	CC/C=C\C/C=C\C/C=C\C/C=C\C/C=C\C/C=C\CCC(=O)O[C@H](COC(=O)CCCC/C=C\C/C=C\C/C=C\CCCCC)COP(=O)([O-])OCC[N+](C)(C)C [PC 18:3_22:6@] (ion (formula + adduct): [C48H78NO8P+H] 1+)
297.5 Å²	CCCCC/C=C\C/C=C\CCCCCCCC(=O)O[C@H](COC(=O)CCCCCCCCCCCCCCCCCCC)COP(=O)([O-])OCC[N+](C)(C)C [PC 20:0_18:2] (ion (formula + adduct): [C46H88NO8P+H] 1+)

Same assay, conditions: sample type: plasma; ionization mode: positive; one isomer drawn

Compound	TIMS collisional cross section
CCCCC/C=C\C/C=C\C/C=C\C/C=C\CCCC(=O)O[C@H](COC(=O)CCCC/C=C\C/C=C\C/C=C\CCCCC)COP(=O)([O-])OCC[N+](C)(C)C [PC 18:3@_20:4] (ion (formula + adduct): [C46H78NO8P+H] 1+)	292.8 Å²
CCCCC/C=C\C/C=C\C/C=C\CCCCCCC(=O)O[C@H](COC(=O)CCCCCCCCC/C=C\CCCCCCCC)COP(=O)([O-])OCC[N+](C)(C)C [PC 20:1@_20:3] (ion (formula + adduct): [C48H88NO8P+H] 1+)	301.7 Å²
CCCCC/C=C\C/C=C\C/C=C\C/C=C\CCCCCC(=O)O[C@H](COCCCCCCCCCCCCCCCC)COP(=O)([O-])OCC[N+](C)(C)C [PC O- 16:0@_22:4] (ion (formula + adduct): [C46H86NO7P+H] 1+)	296.3 Å²
CCCCC/C=C\C/C=C\C/C=C\C/C=C\CCCC(=O)O[C@H](COCCCCCCCC/C=C\CCCCCCCC)COP(=O)([O-])OCC[N+](C)(C)C [PC O- 18:1@_20:4] (ion (formula + adduct): [C46H84NO7P+H] 1+)	294 Å²
CCCCCCCCCCCCCC/C=C\OC[C@H](COP(=O)([O-])OCC[N+](C)(C)C)OC(=O)CCCCCCCCCCCCCCC [PC P- 16:0_16:0] (ion (formula + adduct): [C40H80NO7P+H] 1+)	284.4 Å²

The next lines start with the values.

TIMS collisional cross section	Compound
295 Å²	CCCCC/C=C\C/C=C\C/C=C\CCCCC(=O)OC[C@H](COP(=O)([O-])OCC[N+](C)(C)C)OC(=O)CCCCCCC/C=C\CCCCCCCCC [PC 18:3@_19:1] (ion (formula + adduct): [C45H82NO8P+H] 1+)
288.2 Å²	CC/C=C\C/C=C\C/C=C\C/C=C\C/C=C\CCCC(=O)O[C@H](COC(=O)CCCC/C=C\C/C=C\C/C=C\CCCCC)COP(=O)([O-])OCC[N+](C)(C)C [PC 18:3_20:5] (ion (formula + adduct): [C46H76NO8P+H] 1+)
287.3 Å²	CCCCC/C=C\C/C=C\CCCCCCCC(=O)O[C@H](COCCCCCCCCCCCCCCCC)COP(=O)([O-])OCC[N+](C)(C)C [PC O- 16:0@_18:2] (ion (formula + adduct): [C42H82NO7P+H] 1+)
287.2 Å²	CC/C=C\C/C=C\C/C=C\C/C=C\CCCCCCC(=O)O[C@H](COCCCCCCCC/C=C\CCCCCC)COP(=O)([O-])OCC[N+](C)(C)C [PC O- 16:1@_20:4] (ion (formula + adduct): [C44H80NO7P+H] 1+)
294.7 Å²	CCCCC/C=C\C/C=C\CCCCCCCC(=O)O[C@H](COCCCCCCCCCCCCCCCCCC)COP(=O)([O-])OCC[N+](C)(C)C [PC O- 18:0@_18:2] (ion (formula + adduct): [C44H86NO7P+H] 1+)
304.9 Å²	CC/C=C\C/C=C\C/C=C\C/C=C\C/C=C\C/C=C\CCC(=O)O[C@H](COCCCCCCCCCCCCCCCCCCCC)COP(=O)([O-])OCC[N+](C)(C)C [PC O- 20:0@_22:6] (ion (formula + adduct): [C50H90NO7P+H] 1+)
287.7 Å²	CCCCCCCC/C=C\CCCCCCCC(=O)O[C@H](CO/C=C\CCCCCCCCCCCCCC)COP(=O)([O-])OCC[N+](C)(C)C [PC P- 16:0@_18:1] (ion (formula + adduct): [C42H82NO7P+H] 1+)
